Assays:
giant foxtail = assay: Test A preemergence; format: in vivo, Setaria faberii; settings: for Foxtail, Giant plant response rating: 500 g ai/ha
Method in brief: (§1)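 Greenhouse pot test, loam/sand soil. Formulation: non-phytotoxic solvent mix plus surfactant. Pre: directed spray onto soil after sowing. Post: plants at 1–2 leaf, 2–10 cm. Rated visually vs untreated controls at ~10 d, 0 (no effect) to 100 (complete control).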

barnyardgrass = assay: Test A postemergence; format: in vivo, Echinochloa crus-galli; settings: 0 to 100 scale where 0 is no effect and 100 is complete control; for Barnyardgrass plant response rating: 125 g ai/ha; for Plant response rating, Barnyardgrass: 500 g ai/ha
Method in brief: as §1

velvetleaf [1] = assay: Test A postemergence; format: in vivo, Abutilon theophrasti; settings: 0 to 100 scale where 0 is no effect and 100 is complete control; for Velvetleaf plant response rating: 125 g ai/ha; for Plant response rating, Velvetleaf: 500 g ai/ha
Method in brief: as §1

wheat = assay: Test A postemergence; format: in vivo, Triticum aestivum; settings: 0 to 100 scale where 0 is no effect and 100 is complete control; for Wheat plant response rating: 125 g ai/ha; for Plant response rating, Wheat: 500 g ai/ha
Method in brief: as §1

sedge, umbrella = assay: Test B flooded paddy test; format: in vivo, Cyperus difformis; settings: Flood, 250 g ai/ha; 0 to 100 scale where 0 is no effect and 100 is complete control
Method in brief: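 Plants at 2-leaf stage; pots flooded to 3 cm above soil and compound applied directly into paddy water, depth held throughout. After 13 to 15 days in greenhouse, visual rating versus controls on 0 (no effect) to 100 (complete control) scale.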

corn = assay: Test C preemergence; format: in vivo, Zea mays; settings: for Corn plant response rating: preemergence; for Plant response rating, Corn: Preemergence, scale 0 to 100, 0 no effect, 100 complete control
Method in brief: (§2)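 Seeds were sown in loam–sand blend and sprayed preemergence, while plants at 1- to 4-leaf stage (2–18 cm) in peat-based medium received postemergence sprays; test chemicals were formulated in a non-phytotoxic solvent with surfactant. After 13–15 days in a greenhouse, injury was rated visually against controls, 0 (no effect) to 100 (complete control).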

morningglory = assay: Test C preemergence; format: in vivo, Ipomoea coccinea; settings: for Morningglory plant response rating: preemergence
Method in brief: as §2

waterhemp = assay: Test C preemergence; format: in vivo, Amaranthus rudis; settings: for Waterhemp plant response rating: preemergence
From the text: Seeds of plant species selected from blackgrass (Alopecurus myosuroides), Italian ryegrass (Lolium multiflorum), wheat, winter (winter wheat, Triticum aestivum), galium (catchweed bedstraw, Galium aparine), corn (Zea mays), large (Lg) crabgrass (Digitaria sanguinalis), giant foxtail (Setaria faberii), johnsongrass (Sorghum halepense), lambsquarters (Chenopodium album), morningglory (Ipomoea coccinea), yellow nutsedge (Cyperus esculentus), pigweed (Amaranthus retroflexus), ragweed (common ragweed, Ambrosia elatior), soybean (Glycine max), barnyardgrass (Echinochloa crus-galli), oilseed rape (Brassica napus), waterhemp (common waterhemp, Amaranthus rudis), kochia (Kochia scoparia), wild oat (Avena fatua), surinam grass (Brachiaria decumbens), foxtail, green (green foxtail, Setaria viridis), goosegrass (Eleusine indica), bromegrass, downy (downy bromegrass, Bromus tectorum), nightshade (eastern black nightshade, Solanum ptycanthum), cocklebur (common cocklebur, Xanthium strumarium), cupgrass, woolly (woolly cupgrass, Eriochloa villosa), bermudagrass (Cynodon dactylon), sunflower, (common oilseed sunflower, Helianthus annuus), Russian thistle (Salsola kali), and velvetleaf (Abutilon theophrasti) were planted into a blend of loam soil and sand and treated preemergence with test chemicals formulated in a non-phytotoxic solvent mixture which included a surfactant.
At the same time, plants selected from these crop and weed species and also barley, winter (winter barley, Hordeum vulgare), windgrass (Apera spica-venti), chickweed (common chickweed, Stellaria media), deadnettle (henbit deadnettle, Lamium amplexicaule), and canarygrass (littleseed canarygrass, Phalaris minor) were planted in pots containing Redi-Earth® planting medium (Scotts Company, 14111 Scottslawn Road, Marysville, Ohio 43041) comprising spaghnum peat moss, vermiculite, wetting agent and starter nutrients and treated with postemergence applications of test chemicals formulated in the same manner. Plants ranged in height from 2 to 18 cm (1- to 4-leaf stage) for postemergence treatments. Treated plants and controls were maintained in a greenhouse for 13 to 15 days, after which time all species were compared to controls and visually evaluated. Plant response ratings, summarized in Table C, are based on a scale of 0 to 100 where 0 is no effect and 100 is complete control. A dash (-) response means no test result.

velvetleaf [2] = assay: Test C preemergence; format: in vivo, Abutilon theophrasti; settings: for Velvetleaf plant response rating: preemergence
Method in brief: as §2

[3] = 0 to 100 scale where 0 is no effect and 100 is complete control
[4] = 16 g ai/ha, scale 0 to 100 (0 no effect, 100 complete control)
[5] = 125 g ai/ha, scale 0 (no effect) to 100 (complete control)
[6] = Preemergence, 62 g ai/ha, scale 0 to 100, 0 no effect, 100 complete control
[7] = 62 g ai/ha, scale 0 (no effect) to 100 (complete control)

| Compound | Foxtail, Giant plant response rating (giant foxtail; [3]) | Barnyardgrass plant response rating (barnyardgrass) | Plant response rating, Barnyardgrass (barnyardgrass) | Velvetleaf plant response rating (velvetleaf [1]) | Plant response rating, Velvetleaf (velvetleaf [1]) | Wheat plant response rating (wheat) | Plant response rating, Wheat (wheat) | Plant response rating, Sedge, Umbrella (sedge, umbrella) | Corn plant response rating (corn; [4]) | Corn plant response rating (corn; [5]) | Morningglory plant response rating (morningglory; [4]) | Morningglory plant response rating (morningglory; [5]) | Waterhemp plant response rating (waterhemp; [4]) | Waterhemp plant response rating (waterhemp; [5]) | Velvetleaf plant response rating (velvetleaf [2]; [4]) | Velvetleaf plant response rating (velvetleaf [2]; [5]) | also measured |
| --- | --- | --- | --- | --- | --- | --- | --- | --- | --- | --- | --- | --- | --- | --- | --- | --- | --- |
| CCOc1cnn(-c2ccccc2Oc2ncc(Cl)cn2)c1 [Compound 187] | 100 | 80 | 90 | 100 | 100 | 20 | 60 | 50 | 0 | 5 | 0 | 5 | 25 | 95 | 25 | 100 | Foxtail, Giant plant response rating (0 to 100 scale) (giant foxtail; 125 g ai/ha): 100; Plant response rating, Corn (corn; 62 g ai/ha): 5; Plant response rating, Morningglory (morningglory; [6]): 0; Plant response rating, Waterhemp (waterhemp; [6]): 85; Plant response rating, Velvetleaf (velvetleaf [2]; [6]): 95 |
| Fc1cccc(Oc2ncc(Cl)cn2)c1-n1cc(I)cn1 [Compound 179] | 100 | 80 | 100 | 100 | 100 | 30 | 60 | 85 | 0 | 15 | 10 | 90 | 90 | 100 | 60 | 100 | Plant response rating, Foxtail, Giant (giant foxtail; 125 g ai/ha, 0 to 100 scale where 0 is no effect and 100 is complete control): 100; Corn plant response rating (corn; [7]): 5; Plant response rating, Corn (corn; 31 g ai/ha): 5; Morningglory plant response rating (morningglory; [7]): 35; Waterhemp plant response rating (waterhemp; [7]): 98; Velvetleaf plant response rating (velvetleaf [2]; [7]): 98 |

From patent US9695155B2, “Herbicidal substituted pyrimidinyloxy benzene compounds” (E. I. DU PONT DE NEMOURS AND COMPANY, priority 2013, dated 2017)
